Data on 2 molecules can be found in EP0218359A1, “Conditioning natural gas streams with preferential physical solvents” (EL PASO HYDROCARBONS COMPANY, priority 1985, dated 1987).

Holding throughout (type): physicochemical
A short description of data set [1]: solubility of hydrocarbons in the solvent (hydrocarbon loading capacity). The following applies: normal cubic meters of gaseous hydrocarbons per cubic meter of the solvent. From the text: (§1) The preferential factor for physical solvent selection for the Mehra Process is defined as a product of relative volatility of methane over ethane multiplied by the solubility of ethane in physical solvents, specified as normal cubic meters of ethane per cubic meter of solvent.

Data set [2] is described as follows: relative volatility of methane over ethane in the presence of the solvent.
Text: as §1

Data set [3] can be described thus: preferential factor (relative volatility of methane over ethane multiplied by solubility of ethane in solvent). The following applies: relative volatility of methane over ethane x solubility of ethane in solvent. From the text:
The preferential physical solvents are defined for the purposes of this invention as having a minimum relative volatility of methane over ethane of at least 5.0 (thereby defining its improved selectivity toward ethane over methane) and in addition a solubility of at least 1.77 normal cubic meters of gaseous hydrocarbons per cubic meter of the solvent (Nm^3/m^3) (thereby defining its hydrocarbon loading capacity), or, alternatively, a preferential factor of at least 8.85. The preferential factor for physical solvent selection for the Mehra Process is defined as a product of relative volatility of methane over ethane multiplied by the solubility of ethane in physical solvents, specified as normal cubic meters of ethane per cubic meter of solvent. […] This combination of minimum relative volatility and minimum solubility enables solvent flow rate variations and operating pressure and temperature variations to be selectively 'utilized in the Mehra Process for flexibly producing liquid products having selected hydrocarbon compositions.
Relative Volatilities of Ethane/Methane, Solubilities of Ethane in Solvent, and combined Preferential Factors are given in the following Table II for NMP, DMF, a common lean oil, the minimum solvent having desired requirements for Mehra Process applications, DMPEG, mesitylene, and the ideal solvent in the Mehra Process. […]

In the case of “dimethyl ether of polyethylene glycol [DMPEG]”, the solubility of hydrocarbons in data set [1] is 7.0 Nm^3/m^3. For the same molecule, in data set [2], the “relative volatility for methane with respect to ethane” value is reported as 6.4. In data set [3], the preferential factor is 45.

For the molecule `CN1CCCC1=O` [NMP, N-methyl pyrrolidone], the solubility of hydrocarbons in data set [1] came to 0.2 Nm^3/m^3. The “relative volatility for methane with respect to ethane” value in data set [2] turned out to be 5.3. Moreover, the preferential factor in data set [3] is 1.1.
